From article PMC9505538, “P-Glycoprotein (MDR1/ABCB1) Restricts Brain Accumulation of the Novel EGFR Inhibitor EAI045 and Oral Elacridar Coadministration Enhances Its Brain Accumulation and Oral Exposure” (Pharmaceuticals, 2022)
Values joined by “and” are separate entries in the source; they are usually repeats but may differ in a detail not shown here. Equal values may be shown once.

Experiment: 30-min pharmacokinetic experiment with oral elacridar coadministration in WT mice
Protocol: Considering the potential therapeutic benefit of increasing EAI045 brain penetration, and possibly also plasma exposure, we investigated to what extent elacridar, a dual ABCB1 and ABCG2 inhibitor, could increase the brain penetration and oral exposure of EAI045. We performed a 30-min pharmacokinetic experiment with an EAI045 dose of 20 mg/kg, and elacridar at 50 mg/kg. As elacridar plasma concentration peaks around 3–4 h after oral administration, elacridar was administered orally 3 h prior to oral EAI045 administration to male WT mice. Plasma and tissue EAI045 levels were determined 30 min later.
Mice (Mus musculus) were bred in the Netherlands Cancer Institute and housed and handled according to institutional guidelines complying with Dutch and EU legislation. Animals used were WT, Abcb1a/1b^-/- [39], Abcg2^-/- [40], Abcb1a/1b;Abcg2^-/- [41], Cyp3a^-/- [42], and Oatp1a/1b^-/- [43] mice of a >99% FVB/N strain background. Homozygous CYP3A4 humanized transgenic mice (Cyp3aXAV) were generated by cross-breeding of transgenic mice with stable human CYP3A4 expression in the liver or intestine, respectively, in a Cyp3a^-/- background. Proper functionality of the knockout and transgenic strains was monitored by regular testing with a variety of drug substrates. All the mice used were between 10 and 15 weeks of age. Animals were kept in a temperature-controlled environment with a 12 h light/12 h dark cycle and received a standard diet (Transbreed, SDS Diets, Technilab-BMI, The Netherlands) and acidified water ad libitum. Depending on the type of experiment, 5 or 6 mice were tested in each experimental group. All experimental animal protocols, including power calculations, were ethically assessed and designed under the nationally approved DEC/CCD project AVD301002016595 (approval date, 10 August 2016) and evaluated and approved by the institutional animal care and use committee (IACUC) of the Netherlands Cancer Institute.
EAI045 was dissolved in dimethyl sulfoxide (DMSO) at a concentration of […], and then diluted with a mixture of polysorbate 80/ethanol (1:1, v/v), and further diluted with 5% (w/v) glucose in water to yield a concentration of 2 mg/mL. Final concentrations for DMSO, polysorbate 80, ethanol, and glucose in the dosing solution were 5%, 2.5%, 2.5%, and 4.5% (v/v/v/w), respectively. Elacridar hydrochloride was dissolved in DMSO at a concentration of 53 mg/mL, then diluted with a mixture of polysorbate 80, ethanol, and water [20:13:67, (v/v/v)] to yield a concentration of 5 mg/mL elacridar. The final oral dose of elacridar was 50 mg/kg body weight. All dosing solutions were prepared freshly on the day of experiment.
To minimize variation in absorption, mice were fasted for about 3 h before EAI045 was administered by gavage into the stomach (n = 5–6), using a blunt-ended needle. EAI045 was administered orally at dose of 20 mg/kg. Elacridar was administered orally at a dose of 50 mg/kg, 3 h prior to oral EAI045 administration. For the 24- or 4-h experiments, tail vein blood samplings were performed at 5 min, 30 min, 1, 2, 4, and 8 h, or 5 min, 15 min, 30 min, 1, and 2 h time points after oral administration of EAI045, respectively, using microvettes containing heparin. For the 30 min experiments, blood samplings were performed at 5, 10, and 20 min from the tail vein. At the last time point (24 h, 4 h, or 30 min), mice were anesthetized with isoflurane and blood was collected by cardiac puncture. Then, mice were sacrificed by cervical dislocation and brain, liver, spleen, kidneys, lung, small intestine with content (SIWC), and testis were rapidly removed and weighed. Tissues were homogenized on ice in appropriate volumes of 2% (w/v) BSA. Blood samples were centrifuged at 9000× g for 6 min at 4 °C immediately after collection.

[1] = WT + elacridar compared to Abcb1a/1b;Abcg2-/- mice, 30 min
[2] = male WT mice + elacridar, EAI045 20 mg/kg oral, 30 min
[3] = male WT mice + elacridar, EAI045 20 mg/kg oral, plasma

plasma AUC0–30min, fold increase (WT + elacridar compared to Abcb1a/1b;Abcg2-/- mice): 2.4 fold | SIWC%, fold decrease [1]: 3.5 fold | SIWC%-to-plasma ratio, fold decrease [1]: 8.6 fold | Fold change Cbrain (WT + elacridar vs WT, 30 min): 17 fold and 17.0 fold | Fold change Ctestis (WT + elacridar vs WT, 30 min): 8.7 fold | Fold change Kp.SIWC% (WT + elacridar vs WT, 30 min): 0.032 fold | Fold change Kp.brain (WT + elacridar vs WT, 30 min): 5.4 fold | Fold change Kp.testis (WT + elacridar vs WT, 30 min): 2.6 fold | Fold change SIWC% (WT + elacridar vs WT, 30 min): 0.13 fold | Kp.SIWC% (SIWC%-to-plasma ratio), fold decrease (WT + elacridar vs WT, 30 min): 30.8 fold | SIWC%, fold decrease (WT + elacridar vs WT, 30 min): 7.5 fold | Fold change AUC (WT + elacridar vs WT, plasma AUC0–30min, EAI045 20 mg/kg oral, 20 mg/kg): 4 fold and 4.0 fold | Plasma AUC0–30min (male WT mice + elacridar 50 mg/kg oral 3 h before, EAI045 20 mg/kg oral): 549 ± 82 ***^. +++ h*ng/mL | Cbrain (brain concentration) [2]: 395.9 ± 123.1 ***^. +++ ng/g | Ctestis (testis concentration) [2]: 198.7 ± 58.9 ***^. +++ ng/g | Kp.SIWC% (SIWC%-to-plasma ratio) [2]: 5.13 ± 2.63 | Kp.brain (brain-to-plasma ratio) [2]: 0.560 ± 0.200 | Kp.testis (testis-to-plasma ratio) [2]: 0.280 ± 0.096 | SIWC% (drug percentage of dose in small intestine with content) [2]: 4.00 ± 2.57 % | Cmax [3]: 1512 ± 260 ng/mL | tmax [3]: 10 to 30 min
SMILES: O=C(Nc1nccs1)C(c1cc(F)ccc1O)N1Cc2ccccc2C1=O (stereo not drawn) [EAI045]
